Article PMC12715805, “Screening apelin analogues and a small molecule agonist as effective cardiovascular therapeutics against reperfusion injury” (RSC Medicinal Chemistry, 2025)
Where a SMILES comes first, the peptide text is derived from it.

Key:
[1] = target: T1, apelinR / human Gαi1 (Homo sapiens, UniProt P35414); assay: ebBRET Gαi1 activation; type: cell-based; conditions: HEK293 cells transfected with apelinR, human Gαi1, Rap1GAP-RlucII, rGFP-CAAX; 10 min at 37 °C; mean ± SEM of 5 to 6 independent experiments; read-out: Gαi1 activation log EC50 (converted)
T1 sequence (P35414 1-380): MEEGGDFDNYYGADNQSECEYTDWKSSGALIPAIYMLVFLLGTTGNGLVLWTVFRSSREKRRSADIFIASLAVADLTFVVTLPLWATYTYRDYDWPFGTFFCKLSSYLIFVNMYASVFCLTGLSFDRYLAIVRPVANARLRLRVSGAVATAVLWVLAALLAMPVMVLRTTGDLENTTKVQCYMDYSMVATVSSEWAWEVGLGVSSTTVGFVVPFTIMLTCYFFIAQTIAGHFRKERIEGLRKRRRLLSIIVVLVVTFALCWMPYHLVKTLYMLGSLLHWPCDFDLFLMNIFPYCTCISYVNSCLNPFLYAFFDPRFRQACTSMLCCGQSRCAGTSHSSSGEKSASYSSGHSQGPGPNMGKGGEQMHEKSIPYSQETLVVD

[2] = target: T2, apelinR / human Gαi2 (Homo sapiens, UniProt P35414); assay: ebBRET Gαi2 activation; type: cell-based; conditions: HEK293 cells transfected with apelinR, human Gαi2, Rap1GAP-RlucII, rGFP-CAAX; 10 min at 37 °C; mean ± SEM of 5 to 6 independent experiments; read-out: Gαi2 activation log EC50 (converted)
T2 sequence (P35414 1-380): T1 sequence (P35414 1-380)

[3] = system: rats; conditions: MI rat model; hypertension-induced cardiac dysfunction rat model; cited from earlier work
From the text: Another avenue being investigated is the use of small molecule as agonists for the apelinR, such as, Bristol Myers Squibb's BMS-986224,[26,27] Amgen's AMG986,[28] and Davenport's CMF-019.[29] […] In contrast, the two non peptidic apelinR agonists, BMS-98622 ...

EC50 [1] [nM]	EC50 [2] [nM]	SMILES	change in BP in a myocardial infarction (MI) rat model and a hypertension-induced cardiac dysfunction rat model (in words) [3]
1070	1150	CSCC[C@H](NC(=O)[C@@H]1CCCN1C(=O)CN)C(=O)N1CCC[C@H]1C(=O)N[C@@H](Cc1ccccc1)C(=O)O [apelin-5-mer C-terminal] (H-GPMPF-OH)	–
–	–	COc1cccc(OC)c1-n1c(NS(=O)(=O)[C@@H](C)[C@@H](OC(C)C)c2ncc(C)cn2)nnc1-c1cncc(C)c1 [AM-812337]	do not induce any change in BP
490	347	CSCC[C@H](NC(=O)[C@@H]1CCCN1C(=O)CNC(=O)[C@H](CCCCN)NC(=O)[C@H](Cc1c[nH]cn1)NC(=O)[C@@H](N)CO)C(=O)N1CCC[C@H]1C(=O)N[C@@H](Cc1ccccc1)C(=O)O [apelin 8-mer C-terminal] (H-SHKGPMPF-OH)	–
